Test results reported in the supplement of paper PMC11451515.

Test system: SEM cells
Test: cell viability relative to DMSO control; higher = less cytotoxic
Settings: 48 h
Outline: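 NOMO1 or SEM cells were plated at 500 cells/well and P12-Ichikawa cells at 1000 cells/well in 1536-well plates (5 μl), after each leukemia line had been adapted for at least four passages in each medium. Pin dosing delivered library compounds in DMSO at 11 threefold concentrations, 47 μM to 0.79 nM. CellTiter-Glo One luminescence was read after 48 h at 37°C. Viability is reported as a per-plate percentage of DMSO wells, with cell-free wells as background.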

[1] = HPLM + 10% dialyzed FBS, 0.000781 µM
[2] = HPLM + 10% dialyzed FBS, 0.00234 µM
[3] = HPLM + 10% dialyzed FBS, 0.00702 µM
[4] = HPLM + 10% dialyzed FBS, 0.0211 µM
[5] = HPLM + 10% dialyzed FBS, 0.0632 µM
[6] = HPLM + 10% dialyzed FBS, 0.19 µM
[7] = HPLM + 10% dialyzed FBS, 0.569 µM
[8] = HPLM + 10% dialyzed FBS, 1.71 µM
[9] = HPLM + 10% dialyzed FBS, 5.12 µM
[10] = HPLM + 10% dialyzed FBS, 15.4 µM
[11] = HPLM + 10% dialyzed FBS, 46.1 µM
[12] = RPMI 5 mM glucose + 10% FBS, 0.000781 µM
[13] = RPMI 5 mM glucose + 10% FBS, 0.00234 µM
[14] = RPMI 5 mM glucose + 10% FBS, 0.00702 µM
[15] = RPMI 5 mM glucose + 10% FBS, 0.0211 µM
[16] = RPMI 5 mM glucose + 10% FBS, 0.0632 µM
[17] = RPMI 5 mM glucose + 10% FBS, 0.19 µM
[18] = RPMI 5 mM glucose + 10% FBS, 0.569 µM
[19] = RPMI 5 mM glucose + 10% FBS, 1.71 µM
[20] = RPMI 5 mM glucose + 10% FBS, 5.12 µM
[21] = RPMI 5 mM glucose + 10% FBS, 15.4 µM
[22] = RPMI 5 mM glucose + 10% FBS, 46.1 µM
[23] = RPMI 5 mM glucose + 10% dialyzed FBS, 0.000781 µM
[24] = RPMI 5 mM glucose + 10% dialyzed FBS, 0.00234 µM
[25] = RPMI 5 mM glucose + 10% dialyzed FBS, 0.00702 µM
[26] = RPMI 5 mM glucose + 10% dialyzed FBS, 0.0211 µM
[27] = RPMI 5 mM glucose + 10% dialyzed FBS, 0.0632 µM
[28] = RPMI 5 mM glucose + 10% dialyzed FBS, 0.19 µM
[29] = RPMI 5 mM glucose + 10% dialyzed FBS, 0.569 µM
[30] = RPMI 5 mM glucose + 10% dialyzed FBS, 1.71 µM
[31] = RPMI 5 mM glucose + 10% dialyzed FBS, 5.12 µM
[32] = RPMI 5 mM glucose + 10% dialyzed FBS, 15.4 µM
[33] = RPMI 5 mM glucose + 10% dialyzed FBS, 46.1 µM

Compound	cell viability [1]	cell viability [2]	cell viability [3]	cell viability [4]	cell viability [5]	cell viability [6]	cell viability [7]	cell viability [8]	cell viability [9]	cell viability [10]	cell viability [11]	cell viability [12]	cell viability [13]	cell viability [14]	cell viability [15]	cell viability [16]	cell viability [17]	cell viability [18]	cell viability [19]	cell viability [20]	cell viability [21]	cell viability [22]	cell viability [23]	cell viability [24]	cell viability [25]	cell viability [26]	cell viability [27]	cell viability [28]	cell viability [29]	cell viability [30]	cell viability [31]	cell viability [32]	cell viability [33]
CCC(=O)O[C@@]1([C@H](C)C[C@H]2[C@@H]3C[C@H](F)\C4=C\C(=O)\C=C/[C@]4(C)[C@@]3(F)[C@@H](O)C[C@]12C)C(=O)SCF	96.6%	102%	94.7%	68%	60.6%	13.1%	66.1%	79.4%	64.9%	61.9%	58%	94.2%	103%	88.6%	67.8%	53.2%	13.1%	68.6%	73%	68.6%	59.5%	59.6%	98.1%	124%	83.6%	73.5%	40.5%	11.7%	58.8%	63.4%	60.6%	53.3%	53.4%
CN(C)c1nc(N(C)C)nc(N(C)C)n1	92.3%	97.3%	110%	95.1%	103%	104%	106%	92.5%	97.6%	92.2%	84.9%	107%	111%	102%	105%	107%	101%	102%	100%	90.1%	104%	93.4%	102%	115%	102%	104%	108%	110%	109%	94.3%	100%	98.6%	93.1%
O=C(Oc1ccc([N+](=O)[O-])cc1)N1CCN(Cc2cccc(Oc3ccccc3)c2)CC1	94.6%	100%	93.4%	106%	103%	64.4%	120%	116%	107%	107%	121%	90.4%	86.1%	99.5%	106%	93.6%	67.1%	111%	106%	102%	95.9%	101%	112%	108%	108%	125%	115%	60.9%	109%	108%	114%	110%	121%
COC1=CC=C(C=C1)C/2=C/OC3=CC(=CC=C3C2=O)O	116%	113%	113%	114%	123%	109%	114%	122%	130%	115%	136%	117%	124%	136%	109%	133%	117%	98.9%	106%	143%	122%	145%	124%	139%	112%	110%	115%	120%	122%	121%	133%	131%	142%
C=C1C[C@@]2(O)O[C@@]3(C[C@H]2C(C)C)[C@@H](C)CC[C@@H]13	90.3%	85.5%	68.4%	109%	105%	108%	23.6%	41%	100%	108%	95.1%	117%	109%	78.5%	125%	113%	122%	21.8%	41.5%	116%	108%	111%	81.8%	110%	77.2%	97.3%	96%	104%	21.5%	29.9%	105%	111%	93.2%
CC1=C(/C=C/C(C)=C/C=C/C(C)=C/C(=O)Nc2ccc(O)cc2)C(C)(C)CCC1	84.5%	77.4%	81.4%	104%	86.9%	83.9%	85.1%	42.5%	23.1%	5.89%	3.35%	85%	85.5%	92.2%	96.9%	81.4%	88.6%	83%	65%	30.7%	9.06%	3.24%	76.8%	71.5%	80.1%	85.3%	76.6%	80.8%	82.2%	37.5%	20%	4.93%	2.92%
Cl.Cl.Fc1ccc(C(OCCN2CCN(CCCc3ccccc3)CC2)c2ccc(F)cc2)cc1	97.4%	96%	99.3%	104%	104%	93.2%	97.1%	113%	111%	99.7%	32.4%	111%	112%	111%	120%	109%	114%	103%	107%	102%	115%	22.3%	84.9%	99.5%	105%	118%	120%	124%	130%	122%	120%	110%	27.9%
c1ccc(-c2nn3c(c2-c2ccnc4cc(OCCN5CCOCC5)ccc24)CCC3)nc1	77.4%	106%	121%	126%	126%	129%	115%	128%	145%	127%	110%	102%	125%	132%	125%	143%	134%	122%	138%	144%	123%	91.1%	68.3%	122%	137%	132%	135%	127%	125%	131%	117%	129%	82.2%
c1cc(-c2sc(-c3ccncc3)c(-c3ccncc3)c2-c2ccncc2)ccn1	90.9%	107%	108%	110%	106%	116%	107%	82.4%	43.3%	20.7%	14.9%	89.6%	87.8%	93.9%	89.3%	106%	97.9%	101%	63.5%	29.6%	17.9%	13.2%	102%	101%	118%	113%	106%	110%	103%	67.3%	41%	22.4%	15.1%
C[C@H]1CCC/C=C/C2C[C@H](O)C[C@H]2[C@H](O)/C=C/C(=O)O1 (stereo not given in full)	15.7%	31.7%	17.9%	5.79%	5.21%	5.3%	5%	4.73%	2.72%	2.09%	2.38%	11.4%	54.4%	44.6%	9.33%	5.67%	6.09%	5.62%	4.83%	3.32%	3.06%	2.16%	4.97%	29.4%	23.6%	5.2%	4.1%	3.92%	3.96%	3.5%	2%	1.85%	1.45%
C[C@H]1[C@@H](CC(C[C@H]2O[C@@H]3O[C@]4(C)CC[C@H]5[C@H](C)CC[C@@H]([C@H]2C)[C@@]35OO4)C[S+](=O)([O-])c2ccc(COC(=O)N(C)C)cc2)O[C@@H]2O[C@]3(C)CC[C@H]4[C@H](C)CC[C@@H]1[C@@]24OO3	96.1%	91.3%	97.2%	99.8%	102%	89.3%	72.9%	5.9%	7.11%	6.96%	4.59%	101%	103%	91.3%	115%	106%	108%	23.9%	6.39%	7.58%	7.01%	5.47%	109%	112%	94.1%	105%	107%	104%	27.5%	6.28%	6.52%	6.47%	4.61%
Cc1nc2c([nH]1)-c1ccccc1N(C(=O)c1ccc(NC(=O)c3ccccc3-c3ccccc3)cc1)CC2	91.3%	115%	90.8%	123%	114%	122%	123%	115%	113%	128%	124%	123%	120%	100%	138%	129%	129%	141%	163%	128%	149%	118%	111%	143%	108%	131%	140%	160%	130%	121%	127%	166%	124%
COC1=CC=C2C(=CC=NC2=C1)OC3=CC=C(NC(=O)\C4=C(C)\N(CC(C)(C)O)N(C4=O)C5=CC=CC=C5)C=C3F	108%	99.9%	129%	108%	114%	112%	112%	98.1%	60.7%	45.7%	39.1%	113%	108%	122%	115%	117%	118%	104%	86.1%	51.1%	30.7%	21.6%	105%	110%	124%	108%	136%	130%	93.8%	69.7%	44.4%	35.8%	24.2%
CCC(CC)[C@H](NC(C)=O)[C@@H]1[C@H](O)[C@@H](C(=O)O)C[C@H]1NC(=N)N	62%	68%	77.2%	87.2%	76.1%	32.7%	57.9%	79.1%	78.3%	66.1%	87.8%	89.2%	84.2%	84.6%	80.4%	103%	17.8%	94.4%	102%	87.2%	77.7%	88.3%	69.9%	71.9%	80.8%	80.9%	81.8%	56.7%	50.9%	95.9%	114%	71.9%	68.6%
CC(=O)SCC(Cc1ccccc1)C(=O)NCC(=O)OCc1ccccc1 (stereo not given)	86.1%	79.1%	93.3%	96.4%	99%	103%	105%	97.4%	108%	108%	102%	84.9%	77.2%	97.1%	94%	96%	92.5%	98.3%	99.8%	95.7%	91.2%	90.1%	77.4%	77.6%	82.1%	104%	109%	104%	115%	114%	108%	116%	96.9%
